# Measured values: US5721207A, “Method for treatment of pain” (Innapharma, Inc., priority 1995, dated 1998)
# Tested on: rat
# Test: Rat hot plate analgesiometric test, dose response of single intrathecal elcatonin (Example 8)
# Format: in vivo
# Method: The doses tested were 0.2, 0.8, 1.6, 2.4, and 3.6 IU/kg. The desired dose was injected in a volume of 37.5 μL/kg, followed by a catheter wash-out with 10 μL saline, via the intrathecal route.
# A total of 113 adult male rats, of weights of 350 g to 400 g, were used. Intrathecal catheters were surgically implanted as described in Example 4.
# Data were analyzed for statistical significance, and a point estimate (mean and standard deviation) are used to analyze analgesic activity for each dose of the drug for a selected time period. Nonparametric statistics were calculated to address the level of significance of any difference between control and test group.
substance,measurement,setting,value
"[Des-Cys^1,ASU^7 ]-Calcitonin, Eel [Elcatonin]",antinociceptive response (statistics),0.2 IU/kg intrathecal (lowest dose tested),did not produce a statistically significant response
same,Hot Plate Latency (Mean ± SEM),"0.2 IU/kg intrathecal single, 0 hr (baseline)",10.6 ± 0.8 s
same,Hot Plate Latency (Mean ± SEM),"0.2 IU/kg intrathecal single, 0.25 hr after administration",13.0 ± 1.1 s
same,Hot Plate Latency (Mean ± SEM),"0.2 IU/kg intrathecal single, 0.5 hr after administration",12.9 ± 0.7 s
same,Hot Plate Latency (Mean ± SEM),"0.2 IU/kg intrathecal single, 1 hr after administration",12.7 ± 0.9 s
same,Hot Plate Latency (Mean ± SEM),"0.2 IU/kg intrathecal single, 3 hr after administration",13.1 ± 0.7 s
same,Hot Plate Latency (Mean ± SEM),"0.2 IU/kg intrathecal single, 6 hr after administration",12.1 ± 0.5 s
same,Hot Plate Latency (Mean ± SEM),"0.2 IU/kg intrathecal single, 24 hr after administration",10.8 ± 0.7 s
same,Hot Plate Latency (Mean ± SEM),"0.8 IU/kg intrathecal single, 0 hr (baseline)",9.8 ± 0.8 s
same,Hot Plate Latency (Mean ± SEM),"0.8 IU/kg intrathecal single, 0.25 hr after administration",15.1 ± 1.5 s
same,Hot Plate Latency (Mean ± SEM),"0.8 IU/kg intrathecal single, 0.5 hr after administration",15.0 ± 1.5 s
same,Hot Plate Latency (Mean ± SEM),"0.8 IU/kg intrathecal single, 1 hr after administration",15.2 ± 1.3 s
same,Hot Plate Latency (Mean ± SEM),"0.8 IU/kg intrathecal single, 3 hr after administration",20.0 ± 2.8 s
same,Hot Plate Latency (Mean ± SEM),"0.8 IU/kg intrathecal single, 6 hr after administration",12.3 ± 1.0 s
same,Hot Plate Latency (Mean ± SEM),"0.8 IU/kg intrathecal single, 24 hr after administration",11.7 ± 1.0 s
same,antinociceptive response (statistics),0.8 and 1.6 IU/kg intrathecal,significant antinociception
same,Hot Plate Latency (Mean ± SEM),"1.6 IU/kg intrathecal single, 0 hr (baseline)",9.2 ± 0.5 s
same,Hot Plate Latency (Mean ± SEM),"1.6 IU/kg intrathecal single, 0.25 hr after administration",16.4 ± 1.2 s
same,Hot Plate Latency (Mean ± SEM),"1.6 IU/kg intrathecal single, 0.5 hr after administration",16.0 ± 1.0 s
same,Hot Plate Latency (Mean ± SEM),"1.6 IU/kg intrathecal single, 1 hr after administration",16.4 ± 1.1 s
same,Hot Plate Latency (Mean ± SEM),"1.6 IU/kg intrathecal single, 3 hr after administration",15.1 ± 0.9 s
same,Hot Plate Latency (Mean ± SEM),"1.6 IU/kg intrathecal single, 6 hr after administration",13.6 ± 0.8 s
same,Hot Plate Latency (Mean ± SEM),"1.6 IU/kg intrathecal single, 24 hr after administration",10.9 ± 0.4 s
same,Hot Plate Latency (Mean ± SEM),"2.4 IU/kg intrathecal single, 0 hr (baseline)",9.0 ± 0.7 s
same,Hot Plate Latency (Mean ± SEM),"2.4 IU/kg intrathecal single, 0.25 hr after administration",20.0 ± 1.5 s
same,Hot Plate Latency (Mean ± SEM),"2.4 IU/kg intrathecal single, 0.5 hr after administration",20.1 ± 1.9 s
same,Hot Plate Latency (Mean ± SEM),"2.4 IU/kg intrathecal single, 1 hr after administration",19.5 ± 1.8 s
same,Hot Plate Latency (Mean ± SEM),"2.4 IU/kg intrathecal single, 3 hr after administration",21.8 ± 2.1 s
same,Hot Plate Latency (Mean ± SEM),"2.4 IU/kg intrathecal single, 6 hr after administration",12.6 ± 1.2 s
same,Hot Plate Latency (Mean ± SEM),"2.4 IU/kg intrathecal single, 24 hr after administration",10.3 ± 1.2 s
same,antinociceptive response (statistics),2.4 and 3.6 IU/kg intrathecal,strong antinociception
same,Hot Plate Latency (Mean ± SEM),"3.6 IU/kg intrathecal single, 0 hr (baseline)",10.4 ± 0.9 s
same,Hot Plate Latency (Mean ± SEM),"3.6 IU/kg intrathecal single, 0.25 hr after administration",19.4 ± 1.6 s
same,Hot Plate Latency (Mean ± SEM),"3.6 IU/kg intrathecal single, 0.5 hr after administration",21.4 ± 1.8 s
same,Hot Plate Latency (Mean ± SEM),"3.6 IU/kg intrathecal single, 1 hr after administration",23.5 ± 2.5 s
same,Hot Plate Latency (Mean ± SEM),"3.6 IU/kg intrathecal single, 3 hr after administration",19.5 ± 1.0 s
same,Hot Plate Latency (Mean ± SEM),"3.6 IU/kg intrathecal single, 6 hr after administration",15.7 ± 1.3 s
same,Hot Plate Latency (Mean ± SEM),"3.6 IU/kg intrathecal single, 24 hr after administration",10.2 ± 1.0 s
same,dose relation of hot plate latencies,"intrathecal, 0.2-3.6 IU/kg",increased hot plate latencies in a dose-related fashion
same,onset of antinociception after injection,"intrathecal, 0.2-3.6 IU/kg",≤ 15 min
same,duration of antinociception post-injection,"intrathecal, all doses used",at least 6 hours
same,time of peak antinociception,"intrathecal, all doses used",30 to 60 min
same,hot plate latency by 24 hr post-injection,"intrathecal, most tests",returned to baseline
same,antinociception at 6 hrs after injection,"intrathecal, three higher doses",Significant antinociception was also apparent
same,"antinociceptive results, intrathecal compared with intravenous",rat hot plate,unexpectedly improved antinociceptive results as compared with intravenous injection
